We go through 5 compounds from patent US20120021973A1, “Peptides for Treatment of Obesity” (priority 2008, published 2012).

*1 amine or outer side, *2 acyl side, *3 side chain or, on linkers, in order; H or OH if unused. Where a SMILES comes first, the peptide text is derived from it. Bridges are numbered along the chain shown (N, C = ends). [ ]: non-standard residue; d: D form. The star is where a group is joined. Palmitoyl(16-(5-tetrazolyl)) = O=C(CCCCCCCCCCCCCCCc1nnn[nH]1)*; Lys(CH2CO2H)2 = N[C@@H](CCCCN(CC(=O)O)CC(=O)O)C(=O)O; X1 = O=C(O)CN(CC(=O)O)C[C@H](N[*:1])C(=O)[*:2]; C20 diacid = O=C(O)CCCCCCCCCCCCCCCCCCC(=O)*; Hyp = O=C(O)[C@@H]1C[C@@H](O)CN1; NTA = O=C(O)CN(CC(=O)O)CC(=O)*; Nle = CCCC[C@H](N)C(=O)O; Dap = NC[C@H](N)C(=O)O; AEEA = NCCOCCOCC(=O)O; βAla = NCCC(=O)O

This assay relates to ad libitum fed rat. Kind of assay: Assay (I) efficacy testing on appetite, ad libitum fed rat model. The format is in vivo. On the procedure: Assay (I)— Experimental Protocol for Efficacy Testing on Appetite with MC4 Analogues, Using an Ad Libitum Fed Rat Model.
TAC:SPRD @mol rats or Wistar rats from M&B Breeding and Research Centre A/S, Denmark are used for the experiments. The rats have a body weight 200-250 g at the start of experiment. The rats arrive at least 10-14 days before start of experiment with a body weight of 180-200 g. Each dose of compound is tested in a group of 8 rats. A vehicle group of 8 rats is included in each set of testing.
When the animals arrive they are housed individually in a reversed light/dark phase (lights off 7:30 am, lights on 7:30 pm), meaning that lights are off during daytime and on during nighttime. Since rats normally initiate food intake when light is removed, and eat the major part of their daily food intake during the night, this set up results in an alteration of the initiation time for food intake to 7:30 am, when lights are switched off. During the acclimatization period of 10-14 days, the rats have free access to food and water. During this period the animals are handled at least 3 times. The experiment is conducted in the rats' home cages. Immediately before dosing the rats are randomised to the various treatment groups (n 8) by body weight. They are dosed according to body weight at between 7:00 am and 7:45 am, with a 1-3 mg/kg solution administered intraperitoneally (ip), orally (po) or subcutaneously (sc). The time of dosing is recorded for each group. After dosing, the rats are returned to their home cages, where they then have access to food and water. The food consumption is recorded individually every hour for 7 hours, and then after 24 h and sometimes 48 h. At the end of the experimental session, the animals are euthanised.
The individual data are recorded in Microsoft excel sheets. Outliers are excluded after applying the Grubbs statistical evaluation test for outliers, and the result is presented graphically using the GraphPad Prism program.

For `CCCC[C@H](NC(=O)[C@H](CNC(=O)CN(CC(=O)O)CC(=O)O)NC(=O)[C@H](CO)NC(=O)[C@H](CCC(N)=O)NC(=O)[C@H](CO)NC(=O)CNC(=O)COCCOCCNC(=O)CCCCCCCCCCCCCCCc1nnn[nH]1)C(=O)N[C@H]1CCC(=O)NCCCC[C@@H](C(N)=O)NC(=O)[C@H](Cc2c[nH]c3ccccc23)NC(=O)[C@H](CCCNC(=N)N)NC(=O)[C@@H](Cc2ccccc2)NC(=O)[C@@H]2C[C@@H](O)CN2C1=O` [Example 4, (2-{2-[16-(Tetrazol-5-yl)hexadecanoylamino]ethoxy}ethoxy)acetyl-Gly-Ser-Gln-Ser-Dap(BCMA)-Nle-c[Glu-Hyp-D-Phe-Arg-Trp-Lys]-NH2] ({Palmitoyl(16-(5-tetrazolyl))-AEEA}-GSQS[Dap](NTA)[Nle]E[Hyp][dF]RWK-NH2; lactam 7-12), where the note is “3 mg/kg”, the “Food consumption (% of vehicle) 24 h” value is 52 % of vehicle and the “Food consumption (% of vehicle) 48 h” value was 69 % of vehicle.
With `CCCC[C@H](NC(=O)[C@H](CN(CC(=O)O)CC(=O)O)NC(=O)[C@H](Cc1c[nH]cn1)NC(=O)[C@H](CCC(N)=O)NC(=O)[C@H](CO)NC(=O)CNC(=O)COCCOCCNC(=O)CCCCCCCCCCCCCCCc1nnn[nH]1)C(=O)N[C@H]1CCC(=O)NCCCC[C@@H](C(N)=O)NC(=O)[C@H](Cc2c[nH]c3ccccc23)NC(=O)[C@H](CCCNC(=N)N)NC(=O)[C@@H](Cc2ccccc2)NC(=O)[C@@H]2C[C@@H](O)CN2C1=O` [Example 6, (2-{2-[16-(Tetrazol-5-yl)hexadecanoylamino]ethoxy}ethoxy)acetyl-Gly-Ser-Gln-His-Dap(biscarboxymethyl)-Nle-c[Glu-Hyp-D-Phe-Arg-Trp-Lys]-NH2] ({Palmitoyl(16-(5-tetrazolyl))-AEEA}-GSQH[X1][Nle]E[Hyp][dF]RWK-NH2; lactam 7-12), under “3 mg/kg”, the “Food consumption (% of vehicle) 24 h” value was 58 % of vehicle and the “Food consumption (% of vehicle) 48 h” value was 69 % of vehicle.
For `CCCC[C@H](NC(=O)[C@H](CNC(=O)CN(CC(=O)O)CC(=O)O)NC(=O)[C@H](Cc1c[nH]cn1)NC(=O)[C@H](CCC(N)=O)NC(=O)[C@H](CO)NC(=O)CNC(=O)COCCOCCNC(=O)CCCCCCCCCCCCCCCc1nnn[nH]1)C(=O)N[C@H]1CCC(=O)NCCCC[C@@H](C(N)=O)NC(=O)[C@H](Cc2c[nH]c3ccccc23)NC(=O)[C@H](CCCNC(=N)N)NC(=O)[C@@H](Cc2ccccc2)NC(=O)[C@@H]2C[C@@H](O)CN2C1=O` [Example 9, (2-{2-[16-(Tetrazol-5-yl)hexadecanoylamino]ethoxy}ethoxy)acetyl-Gly-Ser-Gln-His-Dap(BCMA)-Nle-c[Glu-Hyp-D-Phe-Arg-Trp-Lys]-NH2] ({Palmitoyl(16-(5-tetrazolyl))-AEEA}-GSQH[Dap](NTA)[Nle]E[Hyp][dF]RWK-NH2; lactam 7-12), for the setting “3 mg/kg”, the “Food consumption (% of vehicle) 24 h” value is 47 % of vehicle and the “Food consumption (% of vehicle) 48 h” value is on record as 57 % of vehicle.
As for `CCCC[C@H](NC(=O)[C@H](CCCCNC(=O)CN(CC(=O)O)CC(=O)O)NC(=O)[C@H](CO)NC(=O)[C@H](CCC(N)=O)NC(=O)[C@H](CO)NC(=O)CNC(=O)COCCOCCNC(=O)CCCCCCCCCCCCCCCc1nnn[nH]1)C(=O)N[C@H]1CCC(=O)NCCCC[C@@H](C(N)=O)NC(=O)[C@H](Cc2c[nH]c3ccccc23)NC(=O)[C@H](CCCNC(=N)N)NC(=O)[C@@H](Cc2ccccc2)NC(=O)[C@@H]2C[C@@H](O)CN2C1=O` [Example 15, (2-{2-[16-(Tetrazol-5-yl)hexadecanoylamino]ethoxy}ethoxy)acetyl-Gly-Ser-Gln-Ser-Lys(BCMA)-Nle-c[Glu-Hyp-D-Phe-Arg-Trp-Lys]-NH2] ({Palmitoyl(16-(5-tetrazolyl))-AEEA}-GSQSK(NTA)[Nle]E[Hyp][dF]RWK-NH2; lactam 7-12), for the setting “1 mg/kg”, the “Food consumption (% of vehicle) 24 h” value was 74 % of vehicle and the “Food consumption (% of vehicle) 48 h” value is reported as 85 % of vehicle.
For `CCCC[C@H](NC(=O)CCNC(=O)[C@H](CCCCN(CC(=O)O)CC(=O)O)NC(=O)[C@H](Cc1c[nH]cn1)NC(=O)[C@H](CCC(N)=O)NC(=O)[C@H](CO)NC(=O)[C@H](CO)NC(=O)[C@H](CCC(N)=O)NC(=O)[C@@H](CO)NC(=O)CNC(=O)COCCOCCNC(=O)COCCOCCNC(=O)CCCCCCCCCCCCCCCCCCC(=O)O)C(=O)N[C@H]1CCC(=O)NCCCC[C@@H](C(N)=O)NC(=O)[C@H](Cc2c[nH]c3ccccc23)NC(=O)[C@H](CCCNC(=N)N)NC(=O)[C@@H](Cc2ccccc2)NC(=O)[C@@H]2C[C@@H](O)CN2C1=O` [Example 22, {2-[2-(2-{2-[2-(19-Carboxynonadecanoylamino)ethoxy]ethoxy}acetylamino)ethoxy]ethoxy}acetyl-Gly-D-Ser-Gln-Ser-Ser-Gln-His-Lys(biscarboxymethyl)-β-Ala-Nle-c[Glu-Hyp-D-Phe-Arg-Trp-Lys]-NH2] ({C20 diacid-AEEA-AEEA}-G[dS]QSSQH[Lys(CH2CO2H)2][βAla][Nle]E[Hyp][dF]RWK-NH2; lactam 11-16), where the note is “1 mg/kg”, the “Food consumption (% of vehicle) 24 h” value is on record as 59 % of vehicle and the “Food consumption (% of vehicle) 48 h” value is recorded as 76 % of vehicle.
